In patent US20150126448A1 (Genentech, Inc., priority 2003, published 2015):

Tests used:
BxPC3 cells [1] = assay: Inhibition of HGF-dependent cell proliferation in BxPC3 cells; assay type: cell-based, human; settings: 5 μg/ml test protein, 25 ng/ml HGF WT; for inhibition of HGF-dependent cell proliferation activity (% activity II): normalized to 5 μg/ml mutant alone (0%) and 25 ng/ml HGF WT (100%); for inhibition of HGF-dependent cell proliferation activity (% activity I): normalized to no HGF (0%) and 25 ng/ml HGF WT (100%)
Method: BxPC3 (human pancreatic adeocarcinoma; ECACC No. 93120816) were obtained from the European Collection of Cell Cultures (CAMR Centre for Applied Microbiology and Research, Porton Down, Salisbury, Wiltshire (UK) and were used in an HGF-dependent proliferation assay. Cells were grown in RPMI medium containing 10% FCS (Sigma F-6178, St. Louis, Mo.), 10 mM HEPES, 2 mM glutamine, 1× Penicillin-Streptomycin (Invitrogen 15140-122, Carlsbad, Calif.), 100× penicillin 10000 μg/ml-streptomycin 10000 mg/ml), and G418 (Invitrogen 10131-035) at 250 mg/ml. The cells were sequentially washed with PBS, PBS containing 10 mM EDTA, then removed using trypsin. The cells were harvested into serum containing media and the cell density was determined using a hemacytometer. Cells at 50000-75000/ml were seeded at 200 μl per well into a white bottom MT plate (Cultur Plate™ 6005680 Packard/PerkinElmer, Boston, Mass.) using the inside 60 wells only and allowed to grow for 24 h. The media was removed, the cells were washed with PBS and 200 ml of serum-free media containing 0.1% BSA (SF-BSA) was added back to the cells. The cells were grown for an additional 24 h. […] Controls were run in the absence of HGF and/or in the absence of test HGF proteins.
The cells were allowed to grow for 72 h and then assayed using the CellTiter-Glo Luminescent Kit (Promega G7571, Madison, Wis.). The procedure followed is described in Promega Technical Bulletin TB288. The microtiter plate was read on a Tropix TR717 microplate luminometer (Berthold 75323 Bad Wildbad, Germany). The percent of stimulation or inhibition of cell proliferation was normalized to the appropriate controls.

MDA-MB-435 cells = assay: MDA-MB-435 cell migration transwell assay; assay type: cell-based
Method: (A) Representative purity of HGF mutants. […] Incomplete conversion of the secreted single-chain form by CHO expression in 1% FBS (v/v) is shown in lane 1. […] Molecular weight markers are shown as Mr×10^3. […] Values represent the averages of 4-8 independent experiments±SD.
Breast cancer cells MDA-MB-435 (HTB-129, ATCC, Manassas, Va.) were cultured in recommended serum-supplemented medium. Confluent cells were detached in PBS containing 10 mM EDTA and diluted with serum-free medium to a final concentration of 0.6−0.8×10^5 cells/ml. 0.2 ml of this suspension ([…]) was added in triplicate to the upper chambers of 24-well transwell plates (8 μm pore size) (HTS Multiwell™ Insert System, Falcon, Franklin Lakes, N.J.) pre-coated with 10 μg/ml of rat tail collagen Type I (Upstate, Lake Placid, N.Y.). […] After incubation for 13-14 h, cells on the apical side of the membrane were removed and those that migrated to the basal side were fixed in 4% paraformaldehyde followed by staining with a 0.5% crystal violet solution. After washing and airdrying, cells were solubilized in 10% acetic acid and the A560 was measured on a Molecular Devices microplate reader. […] Photographs of stained cells were taken with a Spot digital camera (Diagnostics Instruments, Inc., Sterling Heights, Mich.) connected to a Leitz microscope (Leica Mikroskope & Systeme GmbH, Wetzlar, Germany). […]

BxPC3 cells [2] = assay: HGF-dependent proliferation assay in BxPC3 cells (stimulation); assay type: cell-based, human; settings: n=12
Method: BxPC3 (human pancreatic adeocarcinoma; ECACC No. 93120816) were obtained from the European Collection of Cell Cultures (CAMR Centre for Applied Microbiology and Research, Porton Down, Salisbury, Wiltshire (UK) and were used in an HGF-dependent proliferation assay. Cells were grown in RPMI medium containing 10% FCS (Sigma F-6178, St. Louis, Mo.), 10 mM HEPES, 2 mM glutamine, 1× Penicillin-Streptomycin (Invitrogen 15140-122, Carlsbad, Calif.), 100× penicillin 10000 μg/ml-streptomycin 10000 mg/ml), and G418 (Invitrogen 10131-035) at 250 mg/ml. The cells were sequentially washed with PBS, PBS containing 10 mM EDTA, then removed using trypsin. The cells were harvested into serum containing media and the cell density was determined using a hemacytometer. Cells at 50000-75000/ml were seeded at 200 μl per well into a white bottom MT plate (Cultur Plate™ 6005680 Packard/PerkinElmer, Boston, Mass.) using the inside 60 wells only and allowed to grow for 24 h. The media was removed, the cells were washed with PBS and 200 ml of serum-free media containing 0.1% BSA (SF-BSA) was added back to the cells. The cells were grown for an additional 24 h. […]
The cells were allowed to grow for 72 h and then assayed using the CellTiter-Glo Luminescent Kit (Promega G7571, Madison, Wis.). […] The microtiter plate was read on a Tropix TR717 microplate luminometer (Berthold 75323 Bad Wildbad, Germany). […]

Met-IgG fusion protein = Met-IgG fusion protein (UniProt P08581); assay: HGF/Met-IgG competition binding ELISA; competitor: 1 nM biotinylated HGF

| Substance | inhibition of HGF-dependent cell proliferation activity (% activity II) (BxPC3 cells [1]) [%] | inhibition of HGF-dependent cell proliferation activity (% activity I) (BxPC3 cells [1]) [%] | also measured |
| --- | --- | --- | --- |
| HGF R695A: full length two-chain HGF with R695A mutation in the β-chain | 68 | 79 | – |
| HGF β: HGF β-chain residues Val495 to Ser728 with Cys604 to Ser mutation and C-terminal His6 tag | – | – | effect in cell migration assay (MDA-MB-435 cells; concentrations of up to 0.95 μM): had no effect |
| HGF: wild type hepatocyte growth factor, disulfide-linked two-chain α/β heterodimer, recombinant from CHO cells | – | – | proliferation activity at 25 ng/ml as % of the activity at 100 ng/ml (BxPC3 cells [2]): 83.6±13.0% |
| K641A [c173] (ligand) | – | – | IC50mut/IC50WT (Met-IgG fusion protein): 1.04 |
| proHGF: uncleavable single chain form of HGF with amino acid changes R494E and R424A | 75 | 63 | stimulation of cell migration (MDA-MB-435 cells; 1 nM, MDA-MB435 cells, FIG. 2B, 2C): did not stimulate cell migration |
